# Data reported in ChEMBL document CHEMBL2413039, “Novel N-hydroxyfurylacrylamide-based histone deacetylase (HDAC) inhibitors with branched CAP group (Part 2)” (Bioorg Med Chem, 2013).
# Legend:
# HepG2 = assay: cells; type: functional, cell-based; details: Homo sapiens, HepG2, 48 h
# A549 = assay: cells; type: functional, cell-based; details: Homo sapiens, A549, 48 h
# HCT-116 = assay: cells; type: functional, cell-based; details: Homo sapiens, HCT-116, 48 h
# PC-3 = assay: cells; type: functional, cell-based; details: Homo sapiens, PC-3, 48 h
# Histone deacetylase = type: protein assay, Homo sapiens; details: hela
# Homo sapiens [1] = species: Homo sapiens; assay: Selectivity ratio of IC50 for human recombinant HDAC4 to human recombinant HDAC6
# Homo sapiens [2] = species: Homo sapiens; assay: Selectivity ratio of IC50 for human recombinant HDAC1 to human recombinant HDAC6
# Histone deacetylase 4 = Histone deacetylase 4 (Homo sapiens, UniProt P56524); assay: Inhibition of human recombinant HDAC4 using p53 residues 379-382 (RHKKAc) as substrate
# Histone deacetylase 1 = Histone deacetylase 1 (Homo sapiens, UniProt Q13547); assay: Inhibition of human recombinant HDAC1 using p53 residues 379-382 (RHKKAc) as substrate
# [3] = biological target: T1, Protein deacetylase HDAC6 (Homo sapiens, UniProt Q9UBN7)
# T1 sequence (Q9UBN7 whole entry): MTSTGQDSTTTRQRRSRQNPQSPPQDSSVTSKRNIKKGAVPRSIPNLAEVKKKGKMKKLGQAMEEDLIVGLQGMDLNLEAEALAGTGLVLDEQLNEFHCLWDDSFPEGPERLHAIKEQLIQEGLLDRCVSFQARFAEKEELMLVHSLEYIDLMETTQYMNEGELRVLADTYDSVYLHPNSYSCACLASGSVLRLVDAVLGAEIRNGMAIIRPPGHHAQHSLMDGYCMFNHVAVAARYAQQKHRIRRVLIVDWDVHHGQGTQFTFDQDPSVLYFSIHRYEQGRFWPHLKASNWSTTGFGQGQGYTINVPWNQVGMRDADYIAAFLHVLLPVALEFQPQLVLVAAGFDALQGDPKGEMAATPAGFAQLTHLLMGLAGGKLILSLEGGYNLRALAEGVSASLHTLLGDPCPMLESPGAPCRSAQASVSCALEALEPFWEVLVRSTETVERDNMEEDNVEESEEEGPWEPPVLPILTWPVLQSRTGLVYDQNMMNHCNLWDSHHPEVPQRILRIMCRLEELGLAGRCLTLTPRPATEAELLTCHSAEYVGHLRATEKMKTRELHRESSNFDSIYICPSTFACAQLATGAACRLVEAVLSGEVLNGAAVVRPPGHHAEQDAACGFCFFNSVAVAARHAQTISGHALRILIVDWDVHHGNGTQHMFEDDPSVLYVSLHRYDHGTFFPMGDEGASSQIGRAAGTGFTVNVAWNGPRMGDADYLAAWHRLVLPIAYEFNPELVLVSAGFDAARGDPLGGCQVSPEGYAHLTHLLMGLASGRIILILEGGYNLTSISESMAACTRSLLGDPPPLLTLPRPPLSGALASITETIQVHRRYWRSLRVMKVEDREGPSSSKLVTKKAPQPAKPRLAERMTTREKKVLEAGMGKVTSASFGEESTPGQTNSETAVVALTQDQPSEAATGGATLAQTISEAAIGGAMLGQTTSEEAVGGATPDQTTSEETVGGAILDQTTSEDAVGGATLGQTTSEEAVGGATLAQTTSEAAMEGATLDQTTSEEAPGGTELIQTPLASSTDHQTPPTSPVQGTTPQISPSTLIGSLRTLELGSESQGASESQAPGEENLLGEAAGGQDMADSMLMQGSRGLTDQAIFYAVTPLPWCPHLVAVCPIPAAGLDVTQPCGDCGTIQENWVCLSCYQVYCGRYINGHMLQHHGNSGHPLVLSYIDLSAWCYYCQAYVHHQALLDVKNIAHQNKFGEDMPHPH
# Histone deacetylase 4, sequence (P56524 whole entry, the tested form may be a part): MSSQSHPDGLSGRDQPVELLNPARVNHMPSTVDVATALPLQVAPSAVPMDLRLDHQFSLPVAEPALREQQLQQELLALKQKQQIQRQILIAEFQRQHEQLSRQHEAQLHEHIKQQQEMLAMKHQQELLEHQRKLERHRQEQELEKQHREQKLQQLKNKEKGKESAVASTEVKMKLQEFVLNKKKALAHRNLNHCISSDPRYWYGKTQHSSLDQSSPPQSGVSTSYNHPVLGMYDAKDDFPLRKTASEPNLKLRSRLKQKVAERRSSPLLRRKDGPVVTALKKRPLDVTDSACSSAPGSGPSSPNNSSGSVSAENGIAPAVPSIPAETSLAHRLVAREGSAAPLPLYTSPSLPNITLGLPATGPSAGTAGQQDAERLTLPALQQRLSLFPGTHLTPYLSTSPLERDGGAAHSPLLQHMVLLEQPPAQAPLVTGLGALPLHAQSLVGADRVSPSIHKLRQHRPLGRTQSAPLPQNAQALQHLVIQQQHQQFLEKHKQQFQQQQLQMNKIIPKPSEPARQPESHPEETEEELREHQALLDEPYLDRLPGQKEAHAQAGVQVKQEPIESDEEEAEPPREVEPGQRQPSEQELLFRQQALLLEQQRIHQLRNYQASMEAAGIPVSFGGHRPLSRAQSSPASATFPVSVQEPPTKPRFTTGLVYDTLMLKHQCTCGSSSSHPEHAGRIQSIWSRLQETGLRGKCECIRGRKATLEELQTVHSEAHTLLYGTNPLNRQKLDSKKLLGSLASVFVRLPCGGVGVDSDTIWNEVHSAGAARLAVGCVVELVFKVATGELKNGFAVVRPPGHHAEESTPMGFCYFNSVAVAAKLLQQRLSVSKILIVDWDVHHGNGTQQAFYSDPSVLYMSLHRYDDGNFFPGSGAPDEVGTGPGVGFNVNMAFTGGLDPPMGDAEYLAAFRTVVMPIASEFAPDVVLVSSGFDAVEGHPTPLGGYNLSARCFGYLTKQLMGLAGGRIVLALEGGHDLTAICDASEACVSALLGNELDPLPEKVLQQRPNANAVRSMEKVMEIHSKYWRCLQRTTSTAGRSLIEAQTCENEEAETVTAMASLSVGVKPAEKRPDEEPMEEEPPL
# Histone deacetylase 1, sequence (Q13547 whole entry, the tested form may be a part): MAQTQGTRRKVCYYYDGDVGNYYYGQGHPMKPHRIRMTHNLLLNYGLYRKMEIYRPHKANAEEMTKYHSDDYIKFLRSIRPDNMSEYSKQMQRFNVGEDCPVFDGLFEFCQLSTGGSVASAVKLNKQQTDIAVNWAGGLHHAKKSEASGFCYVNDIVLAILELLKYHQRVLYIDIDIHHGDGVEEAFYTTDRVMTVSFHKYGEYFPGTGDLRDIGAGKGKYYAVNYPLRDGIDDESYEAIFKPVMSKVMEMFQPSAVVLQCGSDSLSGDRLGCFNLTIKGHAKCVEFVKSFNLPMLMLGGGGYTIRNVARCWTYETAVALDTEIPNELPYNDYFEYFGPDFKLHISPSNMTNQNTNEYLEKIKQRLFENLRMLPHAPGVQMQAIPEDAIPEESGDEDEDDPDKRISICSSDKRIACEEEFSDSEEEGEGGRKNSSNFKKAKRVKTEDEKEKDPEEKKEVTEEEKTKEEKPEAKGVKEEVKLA
SMILES,EC50 (HepG2) [µM],EC50 (A549) [µM],EC50 (HCT-116) [µM],EC50 (PC-3) [µM],IC50 (Histone deacetylase) [µM],Ratio IC50 (Homo sapiens [1]),Ratio IC50 (Homo sapiens [2]),IC50 (Histone deacetylase 4) [µM],IC50 (Histone deacetylase 1) [µM],IC50 [3] [µM]
O=C(/C=C/c1ccc(CN(CCOc2ccccc2)CCc2ccc3c(c2)OCO3)o1)NO,68.3,37.4,30.6,23.7,2.36,–,–,–,–,–
O=C(/C=C/c1ccc(CN(CCCCOc2ccccc2)Cc2ccc(-c3ccccc3)cc2)o1)NO,32.9,22.4,2.76,23.6,> 2.02,–,–,–,–,–
O=C(/C=C/c1ccc(CN(Cc2ccccc2)Cc2ccc(-c3ccccc3)cc2)o1)NO,66.6,69.8,9.01,14.3,> 2.55,–,–,–,–,–
CC(C)CN(CCc1ccc2c(c1)OCO2)Cc1ccc(/C=C/C(=O)NO)o1,38,39.3,17.1,16.1,> 2.69,–,–,–,–,–
CCN(CCc1ccc2c(c1)OCO2)Cc1ccc(/C=C/C(=O)NO)o1,81.7,84.7,66,66.5,2.31,41.9,16.6,20,7.88,0.48
O=C(/C=C/c1ccc(CN(CCOc2ccccc2)Cc2ccccc2)o1)NO,44.7,52.3,20.1,> 128,> 2.55,26.2,10.5,50.6,20.2,1.93
Cc1ccc(OCCN(CCc2ccc3c(c2)OCO3)Cc2ccc(/C=C/C(=O)NO)o2)cc1,66.7,27,28.5,18.7,0.84,11.3,3.83,52.5,17.8,4.65
CC(C)N(Cc1ccccc1)Cc1ccc(/C=C/C(=O)NO)o1,67.5,34.5,22.7,26.9,0.18,11.6,6.94,3.96,2.37,0.34
O=C(/C=C/c1ccc(CN(CCc2ccc3c(c2)OCO3)Cc2ccccc2)o1)NO,73.2,35.4,91.4,34.5,2.28,–,–,–,–,–
CCCCN(CCc1ccc2c(c1)OCO2)Cc1ccc(/C=C/C(=O)NO)o1,54.3,78.2,17,33.2,> 2.69,–,–,–,–,–
O=C(/C=C/c1ccc(CN(CCCCOc2ccccc2)CCc2ccc3c(c2)OCO3)o1)NO,97.7,46.8,35.9,15.5,1.57,–,–,–,–,–
CCCCCCCCN(Cc1ccc(-c2ccccc2)cc1)Cc1ccc(/C=C/C(=O)NO)o1,36.9,28.8,10.4,36.8,> 2.17,–,–,–,–,–
O=C(/C=C/c1ccc(CN(CCCOc2ccccc2)CCc2ccc3c(c2)OCO3)o1)NO,110,16.3,37.2,18.8,> 2.22,–,–,–,–,–
O=C(/C=C/c1ccc(CN(CCO)CCc2ccc3c(c2)OCO3)o1)NO,105,87.9,69.5,92.5,0.4,–,–,–,–,–
CC(C)CN(Cc1ccccc1)Cc1ccc(/C=C/C(=O)NO)o1,27.7,20.5,26.3,18.8,3.17,11.2,18.7,12.3,20.6,1.1
CCCN(CCc1ccc2c(c1)OCO2)Cc1ccc(/C=C/C(=O)NO)o1,28.7,50.6,15.9,7.57,1.59,–,–,–,–,–
CCCCCN(CCc1ccc2c(c1)OCO2)Cc1ccc(/C=C/C(=O)NO)o1,65.3,72.5,74.8,37.1,3.49,–,–,–,–,–
O=C(CCCCCCC(=O)Nc1ccc([C@H]2O[C@@H](CSc3nc(-c4ccccc4)c(-c4ccccc4)o3)C[C@@H](c3ccc(CO)cc3)O2)cc1)NO,–,–,–,–,–,–,7,–,–,–

# The remaining lines, values ahead:
EC50 (HepG2) [µM],EC50 (A549) [µM],EC50 (HCT-116) [µM],EC50 (PC-3) [µM],IC50 (Histone deacetylase) [µM],Ratio IC50 (Homo sapiens [1]),Ratio IC50 (Homo sapiens [2]),IC50 (Histone deacetylase 4) [µM],IC50 (Histone deacetylase 1) [µM],IC50 [3] [µM],SMILES
5.95,7.95,6.02,42.2,2.54,14.2,10.4,13.2,9.66,0.93,Cc1ccc(OCCCN(Cc2ccccc2)Cc2ccc(/C=C/C(=O)NO)o2)cc1
19.4,23,6.93,18.8,1.71,7.95,3.59,9.07,4.09,1.14,Cc1ccc(OCCN(Cc2ccc(-c3ccccc3)cc2)Cc2ccc(/C=C/C(=O)NO)o2)cc1
18.1,26.4,9.53,15.9,1.21,–,–,–,–,–,O=C(/C=C/c1ccc(CN(CCOc2ccccc2)Cc2ccc(-c3ccccc3)cc2)o1)NO
19.7,14.7,8.23,13.4,> 2.39,–,–,–,–,–,CCCCCN(Cc1ccc(-c2ccccc2)cc1)Cc1ccc(/C=C/C(=O)NO)o1
11.7,11.5,2.22,18.1,1.66,–,–,–,–,–,Cc1ccc(OCCCN(Cc2ccc(-c3ccccc3)cc2)Cc2ccc(/C=C/C(=O)NO)o2)cc1
12.7,16.6,2.05,25.2,> 2.07,–,–,–,–,–,O=C(/C=C/c1ccc(CN(CCCOc2ccccc2)Cc2ccc(-c3ccccc3)cc2)o1)NO
12.8,8.4,1.84,67.9,1.25,6.87,4.11,5.72,3.42,0.83,CCN(Cc1ccc(-c2ccccc2)cc1)Cc1ccc(/C=C/C(=O)NO)o1
15.5,15.6,2.74,24.2,1.61,–,–,–,–,–,CC(C)N(Cc1ccc(-c2ccccc2)cc1)Cc1ccc(/C=C/C(=O)NO)o1
21.8,11,8.96,23.8,2.65,–,–,–,–,–,CCCCCCN(Cc1ccccc1)Cc1ccc(/C=C/C(=O)NO)o1
14.7,10.6,6.43,35.9,2.12,–,–,–,–,–,O=C(/C=C/c1ccc(CN(CCCCOc2ccccc2)Cc2ccccc2)o1)NO
13,52.6,14.8,51.7,1.87,21.8,10,68.1,31.4,3.13,Cc1ccc(OCCN(Cc2ccccc2)Cc2ccc(/C=C/C(=O)NO)o2)cc1
15,25.8,7.24,44.9,1.48,15.6,8.21,12.3,6.48,0.79,O=C(/C=C/c1ccc(CN(CCCOc2ccccc2)Cc2ccccc2)o1)NO
15.9,15.6,2.76,37.6,> 1.96,–,–,–,–,–,Cc1ccc(OCCCCN(Cc2ccc(-c3ccccc3)cc2)Cc2ccc(/C=C/C(=O)NO)o2)cc1
